Test results reported in ChEMBL document CHEMBL6078664, “Abietane Diterpenoids from the Rhizomes of Kaempferia roscoeana and Their Anti-Inflammatory Activities” (J Nat Prod, 2024).

Assays:
RAW264.7 [1] = experiment: Antiinflammatory activity in LPS-induced mouse RAW264.7 cells assessed as inhibition of NO production preincubated for 1 hr followed by LPS stimulation and measured after 24 hrs by microplate reader based analysis; format: functional, cell-based
RAW264.7 [2] = experiment: Cytotoxicity against mouse RAW264.7 cells incubated for 24 hrs by MTT assay; format: functional, cell-based; conditions: RAW264.7, 24 h

| SMILES | IC50 (RAW264.7 [1]) | IC50 (RAW264.7 [2]) |
| --- | --- | --- |
| CO[C@@H]1O[C@]23C=C(C(C)C)CC[C@]2(O)[C@]12CCCC(C)(C)[C@@H]2CC3 | 4.1 µM | > 50 µM |
| CC(C)C1=C[C@]23OC[C@@]4(CCCC(C)(C)[C@@H]4C[C@H]2O)[C@@]3(O)CC1 | 20 µM | > 50 µM |
| CC(C)[C@]1(O)C=C2[C@H](O)C[C@H]3C(C)(C)CCC[C@]3(C)[C@@]2(O)CC1 | 13.7 µM | > 50 µM |
| CC(C)C1=CC2=CC[C@H]3C(C)(C)CCC[C@]3(C=O)[C@@]2(O)CC1 | 4.3 µM | > 50 µM |
| CC(C)[C@]1(O)C=C2CC[C@H]3C(C)(C)CCC[C@]3(C)[C@@]2(O)CC1 | 3.6 µM | > 50 µM |
| CC(C)C1=C[C@@]23CC[C@H]4C(C)(C)CCC[C@]4([C@H](O)O2)[C@@]3(O)CC1 | > 50 µM | > 50 µM |
| CC(C)C1=C[C@@]23CC[C@H]4C(C)(C)CCC[C@]4(CO2)[C@@]3(O)CC1 | 36.8 µM | 44.4 µM |
| C[C@@H]1C[C@H]2[C@@H]3CCC4=CC(=O)C=C[C@]4(C)[C@@]3(F)[C@@H](O)C[C@]2(C)[C@@]1(O)C(=O)CO [DEXAMETHASONE] | 0.3 µM | > 50 µM |
